In ChEMBL document CHEMBL3588788, “Structure-activity relationship of hybrids of Cinchona alkaloids and bile acids with in vitro antiplasmodial and antitrypanosomal activities” (Eur J Med Chem, 2015):

Tests used:
Plasmodium falciparum [1] = experiment: Antiplasmodial activity against Plasmodium falciparum 3D7 assessed as reduction in parasite viability by parasite lactate dehydrogenase assay; type: functional, organism-based
[2] = tested on: Trypanosoma brucei brucei; experiment: Antitrypanosomal activity against Trypanosoma brucei brucei Lister 427 bloodstream forms by microtiter plate based assay; type: functional, organism-based
in vitro = settings: human, WI38 cells
Description: Selectivity index, ratio of IC50 against human WI38 cells to IC50 for Trypanosoma brucei brucei Lister 427 bloodstream forms

[3] = tested on: Trypanosoma brucei brucei; experiment: Potency index, ratio of IC50 for CND to IC50 for test compound against Trypanosoma brucei brucei Lister 427 bloodstream forms by microtiter plate based assay; type: functional
[4] = Selectivity index, ratio of IC50 against human WI38 cells to IC50 for Plasmodium falciparum 3D7; type: toxicity, cell-based, WI-38; settings: read-out: Ratio IC50
Plasmodium falciparum [5] = experiment: Potency index, ratio of IC50 for CND to IC50 for test compound against Plasmodium falciparum 3D7 by parasite lactate dehydrogenase assay; type: functional
[6] = Cytotoxicity against human WI38 cells by MTT assay; type: cell-based, WI-38; settings: Homo sapiens, WI-38; read-out: IC50
Plasmodium falciparum [7] = experiment: Potency index, ratio of IC50 for QND to IC50 for test compound against Plasmodium falciparum 3D7 by parasite lactate dehydrogenase assay; type: functional
[8] = tested on: Trypanosoma brucei brucei; experiment: Potency index, ratio of IC50 for QND to IC50 for test compound against Trypanosoma brucei brucei Lister 427 bloodstream forms by microtiter plate based assay; type: functional
[9] = tested on: Trypanosoma brucei brucei; experiment: Potency index, ratio of IC50 for CN to IC50 for test compound against Trypanosoma brucei brucei Lister 427 bloodstream forms by microtiter plate based assay; type: functional
Plasmodium falciparum [10] = experiment: Potency index, ratio of IC50 for CN to IC50 for test compound against Plasmodium falciparum 3D7 by parasite lactate dehydrogenase assay; type: functional
Plasmodium falciparum [11] = experiment: Potency index, ratio of IC50 for QN to IC50 for test compound against Plasmodium falciparum 3D7 by parasite lactate dehydrogenase assay; type: functional
[12] = tested on: Trypanosoma brucei brucei; experiment: Potency index, ratio of IC50 for QN to IC50 for test compound against Trypanosoma brucei brucei Lister 427 bloodstream forms by microtiter plate based assay; type: functional

Row | Compound | IC50 (Plasmodium falciparum [1]) [µM] | IC50 [2] [µM] | selectivity ratio (in vitro) | Ratio IC50 [3] | selectivity ratio [4] | Ratio IC50 (Plasmodium falciparum [5]) | IC50 [6] [µM] | Ratio IC50 (Plasmodium falciparum [7]) | Ratio IC50 [8] | Ratio IC50 [9] | Ratio IC50 (Plasmodium falciparum [10]) | Ratio IC50 (Plasmodium falciparum [11]) | Ratio IC50 [12]
1 | C=C[C@H]1CN2CC[C@H]1C[C@H]2[C@H](O)c1cc(CC[C@@H](C)[C@H]2CC[C@H]3[C@@H]4CC[C@@H]5C[C@H](O)CC[C@]5(C)[C@H]4C[C@H](O)[C@]23C)nc2ccccc12 | 0.32 | 0.66 | 8.6 | 94.8 | 18 | 3 | 5.64 |  |  |  |  |  | 
2 | C=C[C@H]1CN2CC[C@H]1C[C@@H]2[C@@H](O)c1cc(CC[C@@H](C)[C@H]2CC[C@H]3[C@@H]4[C@H](O)[C@H](O)[C@@H]5C[C@H](O)CC[C@]5(C)[C@H]4CC[C@]23C)nc2ccc(OC)cc12 | 0.17 | 0.77 | 6.2 |  | 27.9 |  | 4.75 | 1.1 | 33.9 |  |  |  | 
3 | C=C[C@H]1CN2CC[C@H]1C[C@@H]2[C@@H](O)c1cc(CC[C@@H](C)[C@H]2CC[C@H]3[C@@H]4[C@H](OC(C)=O)C[C@@H]5C[C@H](OC(C)=O)CC[C@]5(C)[C@H]4C[C@H](OC(C)=O)[C@]23C)nc2ccccc12 | 0.0528 | 0.55 | 9.3 |  | 97 |  | 5.1 |  |  | 123.6 | 5.5 |  | 
4 | C=C[C@H]1CN2CC[C@H]1C[C@H]2[C@H](O)c1cc(CC[C@@H](C)[C@H]2CC[C@H]3[C@@H]4CC[C@@H]5C[C@H](OC(C)=O)CC[C@]5(C)[C@H]4C[C@H](OC(C)=O)[C@]23C)nc2ccccc12 | 0.0772 | 0.57 | 7.1 | 108.2 | 53 | 12.5 | 4.06 |  |  |  |  |  | 
5 | C=C[C@H]1CN2CC[C@H]1C[C@@H]2[C@@H](O)c1cc(CC[C@@H](C)[C@H]2CC[C@H]3[C@@H]4CC[C@@H]5C[C@H](O)CC[C@]5(C)[C@H]4C[C@H](O)[C@]23C)nc2ccccc12 | 0.134 | 0.6 | 5 |  | 22 |  | 2.98 |  |  | 113.1 | 2.2 |  | 
6 | C=C[C@H]1CN2CC[C@H]1C[C@@H]2[C@@H](O)c1cc(CC[C@@H](C)[C@H]2CC[C@H]3[C@@H]4[C@H](OC(C)=O)[C@H](OC(C)=O)[C@@H]5C[C@H](OC(C)=O)CC[C@]5(C)[C@H]4CC[C@]23C)nc2ccc(OC)cc12 | 0.0732 | 0.56 | 5.8 |  | 45 |  | 3.29 | 2.7 | 46.2 |  |  |  | 
7 | C=C[C@H]1CN2CC[C@H]1C[C@@H]2[C@@H](O)c1cc(CC[C@@H](C)[C@H]2CC[C@H]3[C@@H]4[C@H](O)C[C@@H]5C[C@H](O)CC[C@]5(C)[C@H]4C[C@H](O)[C@]23C)nc2ccccc12 | 0.592 | 1.1 | 5.2 |  | 10 |  | 5.68 |  |  | 61.8 | 0.5 |  | 
8 | C=C[C@H]1CN2CC[C@H]1C[C@@H]2[C@@H](O)c1cc(CC[C@@H](C)[C@H]2CC[C@H]3[C@@H]4CC[C@@H]5C[C@H](OC(C)=O)CC[C@]5(C)[C@H]4C[C@H](OC(C)=O)[C@]23C)nc2ccc(OC)cc12 | 0.195 | 0.69 | 7.7 |  | 27 |  | 5.33 | 1 | 37.5 |  |  |  | 
9 | C=C[C@H]1CN2CC[C@H]1C[C@@H]2[C@@H](O)c1cc(CC[C@@H](C)[C@H]2CC[C@H]3[C@@H]4[C@H](OC(C)=O)C[C@@H]5C[C@H](OC(C)=O)CC[C@]5(C)[C@H]4C[C@H](OC(C)=O)[C@]23C)nc2ccc(OC)cc12 | 0.0838 | 0.53 | 8.7 |  | 56 |  | 4.66 | 2.3 | 48.8 |  |  |  | 
10 | C=C[C@H]1CN2CC[C@H]1C[C@@H]2[C@@H](O)c1cc(CC[C@@H](C)[C@H]2CC[C@H]3[C@@H]4[C@H](O)C[C@@H]5C[C@H](O)CC[C@]5(C)[C@H]4C[C@H](O)[C@]23C)nc2ccc(OC)cc12 | 0.7 | 1.21 | 9.8 |  | 17 |  | 11.8 | 0.3 | 21.6 |  |  |  | 
11 | C=C[C@H]1CN2CC[C@H]1C[C@@H]2[C@@H](O)c1cc(CC[C@@H](C)[C@H]2CC[C@H]3[C@@H]4CC[C@@H]5C[C@H](OC(C)=O)CC[C@]5(C)[C@H]4C[C@H](OC(C)=O)[C@]23C)nc2ccccc12 | 0.171 | 1.51 | 3.2 |  | 28.1 |  | 4.8 |  |  | 45.1 | 1.7 |  | 
12 | C=C[C@H]1CN2CC[C@H]1C[C@@H]2[C@@H](O)c1cc(CC[C@@H](C)[C@H]2CC[C@H]3[C@@H]4[C@H](OC(C)=O)[C@H](OC(C)=O)[C@@H]5C[C@H](OC(C)=O)CC[C@]5(C)[C@H]4CC[C@]23C)nc2ccccc12 | 0.0408 | 0.51 | 8.3 |  | 102 |  | 4.17 |  |  | 134.6 | 7.2 |  | 
13 | C=C[C@H]1CN2CC[C@H]1C[C@@H]2[C@@H](O)c1cc(CC[C@@H](C)[C@H]2CC[C@H]3[C@@H]4C[C@H](OC(C)=O)[C@@H]5C[C@H](OC(C)=O)CC[C@]5(C)[C@H]4CC[C@]23C)nc2ccc(OC)cc12 | 0.155 | 1.47 | 3.1 |  | 29 |  | 4.49 | 1.3 | 17.7 |  |  |  | 
14 | C=C[C@H]1CN2CC[C@H]1C[C@@H]2[C@@H](O)c1cc(CC[C@@H](C)[C@H]2CC[C@H]3[C@@H]4CC[C@@H]5C[C@H](O)CC[C@]5(C)[C@H]4C[C@H](O)[C@]23C)nc2ccc(OC)cc12 | 0.281 | 0.61 | 7.1 |  | 15 |  | 4.3 | 0.7 | 42.7 |  |  |  | 
15 | C=C[C@H]1CN2CC[C@H]1C[C@H]2[C@H](O)c1cc(CC[C@@H](C)[C@H]2CC[C@H]3[C@@H]4[C@H](O)C[C@@H]5C[C@H](O)CC[C@]5(C)[C@H]4C[C@H](O)[C@]23C)nc2ccc(OC)cc12 | 1.82 | 1.57 | 12.3 |  | 11 |  | 19.3 |  |  |  |  | 0.3 | 13.5
16 | C=C[C@H]1CN2CC[C@H]1C[C@@H]2[C@@H](O)c1cc(CC[C@@H](C)[C@H]2CC[C@H]3[C@@H]4C[C@H](OC(C)=O)[C@@H]5C[C@H](OC(C)=O)CC[C@]5(C)[C@H]4CC[C@]23C)nc2ccccc12 | 0.186 | 0.64 | 6.6 |  | 23 |  | 4.28 |  |  | 105.7 | 1.6 |  | 
17 | C=C[C@H]1CN2CC[C@H]1C[C@@H]2[C@@H](O)c1cc(CC[C@@H](C)[C@H]2CC[C@H]3[C@@H]4C[C@H](O)[C@@H]5C[C@H](O)CC[C@]5(C)[C@H]4CC[C@]23C)nc2ccccc12 | 0.0716 | 0.72 | 7.6 |  | 77 |  | 5.49 |  |  | 94.5 | 4.1 |  | 
18 | C=C[C@H]1CN2CC[C@H]1C[C@@H]2[C@@H](O)c1cc(CC[C@@H](C)[C@H]2CC[C@H]3[C@@H]4C[C@H](O)[C@@H]5C[C@H](O)CC[C@]5(C)[C@H]4CC[C@]23C)nc2ccc(OC)cc12 | 0.123 | 0.89 | 2.5 |  | 18 |  | 2.2 | 1.6 | 29.2 |  |  |  | 
19 | C=C[C@H]1CN2CC[C@H]1C[C@@H]2[C@@H](O)c1cc(CC[C@@H](C)[C@H]2CC[C@H]3[C@@H]4[C@H](O)[C@H](O)[C@@H]5C[C@H](O)CC[C@]5(C)[C@H]4CC[C@]23C)nc2ccccc12 | 0.183 | 1.81 | 3.1 |  | 31 |  | 5.68 |  |  | 37.6 | 1.6 |  | 
20 | C=C[C@H]1CN2CC[C@H]1C[C@H]2[C@H](O)c1cc(CC[C@@H](C)[C@H]2CC[C@H]3[C@@H]4C[C@H](O)[C@@H]5C[C@H](O)CC[C@]5(C)[C@H]4CC[C@]23C)nc2ccc(OC)cc12 | 0.224 | 0.65 | 7 |  | 21 |  | 4.6 |  |  |  |  | 2.8 | 32.4
